Consider four compounds from article PMC9866601, “Constituents of Pulicaria inuloides and Cytotoxic Activities of Two Methoxylated Flavonols” (Molecules, 2023).

The IC50 is the concentration that inhibits the measured activity by half.

For one data set, the system named is HeLa cells. On the set-up: method as in PMID 30673162. The settings on record: in vitro; cited from earlier work.
A further data set deals with cholinesterase. On the set-up: method as in PMID 30673162. The settings on record: cited from earlier work.
A further data set relates to A549 cells. On the set-up: method as in PMID 30673162. The settings on record: in vitro; cited from earlier work.
A further data set deals with HTB140 cells. The data set can be described thus: MTT cytotoxicity assay, melanoma cells HTB140. The settings on record: for IC50: Homo sapiens. Type of data set: cell-based, human. The protocol:
(§1) Cytotoxic activity was tested on human cancer and normal cells, namely: prostate cancer cell lines DU145 (ATCC HTB-81) and PC3 (ATCC CRL-1435), prostate epithelial cells PNT-2 (ECACC 95012613), melanoma cell lines A375 (ATCC CRL-1619) and HTB140 (ATCC Hs 294T) and skin keratinocytes HaCaT (obtained as a kind gift from prof. Marta Michalik, Department of Cell Biology, Jagiellonian University). DU145 cells were grown in a modified Eagle’s medium with a low (1.0 g/L) glucose concentration, as well as PC3 and PNT-2 cells in Dulbecco’s modified Eagle’s media: F12 HAM nutrient mixture. At the same time, melanoma cells and keratinocytes were maintained in a modified Eagle’s medium with a high (4.5 g/L) glucose concentration. The culture media (all supplied by Sigma-Aldrich Co.; St. Louis, MO, USA) contained antibiotics and 10% fetal bovine serum (FBS). All cultures were maintained at 37 °C in a humidified 5% CO2-containing atmosphere.
(§2) The examined flavonols were diluted in the culture media from freshly made stock solutions in MeOH (10 mg/mL) to the working concentrations (from 5 to 100 μg/mL).
(§3) Cells were seeded in 96-well plates (1.5 × 10^4 cells/well) and preincubated for 24 h (37 °C, 5% CO2). Then, the culture medium was replaced with a fresh medium containing different concentrations of the tested compounds (5–100 µg/mL). The incubation lasted 48 h. Cell viability was measured by an MTT assay, as previously described. The absorbance at 490 nm was measured using a Synergy II Biotek (BioTek Instruments, Winooski, VT, USA) microplate reader. Cytotoxic activity was assessed based on the cell viability expressed as the percentage of living cells. The results were the means of three independent measurements (±SD). Doxorubicin (Ebewe Pharma GmbH., Unterach, Austria) was used as a reference cytostatic drug. The IC50 values were determined by plotting the percentage viability of the cells versus the concentration and adequate calculations made using either Excel or the AAT Bioquest website program (https://www.aatbio.com/tools/ic50-calculator, accessed on 4 September 2022).
(Tetrazolium assays rely on reduction of a dye to a coloured formazan, in cell work by metabolically active cells.)

Another data set concerns A375 cells. The data set can be described thus: MTT cytotoxicity assay, melanoma cells A375. It counts as cell-based, human. The settings on record: for IC50: Homo sapiens, A-375. The protocol: as §1, §2, §3
Another data set deals with HaCaT cells. The experiment in a line: MTT cytotoxicity assay, skin keratinocytes HaCaT. Type of data set: cell-based, human. The settings on record: for IC50: Homo sapiens, HaCaT. The procedure: as §1, §2, §3
Another data set relates to DU145 cells. The data set can be described thus: MTT cytotoxicity assay, prostate cancer cells DU145. Type of data set: cell-based. The settings on record: Homo sapiens, DU-145. The protocol:
as §1, §2, §3

In the next data set the test system is PC3 cells. The experiment in a line: MTT cytotoxicity assay, prostate cancer cells PC3. Type of data set: cell-based. The settings on record: Homo sapiens, PC-3, 48 h, 48 h treatment. The protocol: as §1, §2, §3
A further data set concerns PNT-2 cells. The experiment in a line: MTT cytotoxicity assay, normal prostate epithelial cells PNT-2. It counts as cell-based. The settings on record: Homo sapiens, PNT2. The procedure:
as §1, §2, §3

Setting [1] is: 48 h treatment, 5–100 μg/mL, MTT, read-out: IC50 HTB140.
Setting [2] is: 48 h treatment, 5–100 μg/mL, MTT, read-out: IC50 A375.
Setting [3] is: 48 h treatment, 5–100 μg/mL, MTT, read-out: IC50 HaCaT.
[4] abbreviates: 48 h treatment, 5–100 μg/mL, MTT, read-out: IC50 DU145.
[5] abbreviates: 48 h treatment, 5–100 μg/mL, MTT, read-out: IC50 PNT-2.

The structures appear in SMILES notation. Like-named read-outs stand apart in the source and are kept apart here.

Turning to `C=C1CC/C=C(/CO)C(=O)C[C@@H]2[C@@H]1CC2(C)C` [Compound 8, (1S,9R)-14-hydroxycaryophyll-5(6)-en-7-one], the “cytotoxic activity against HeLa cells” value in the data set with HeLa cells was “moderate cytotoxic activity”. Also, the anticholinesterase activity result with cholinesterase is “weak anticholinesterase activity”. Also, in the data set on A549 cells, the “cytotoxic activity against A549 cells” value is on record as “moderate cytotoxic activity”.

Turning to `C=C1CC/C=C(/CO)C(=O)C[C@@H]2[C@@H]1C[C@]2(C)COC(C)=O` [Compound 9, (1S,9R)-12β-acetoxy-14-hydroxycaryophyll-5(6)-en-7-one], the “cytotoxic activity against HeLa cells” value in the data set with HeLa cells was “moderate cytotoxic activity”. Also, the anticholinesterase activity entry with cholinesterase is “weak anticholinesterase activity”. Further, the “cytotoxic activity against A549 cells” value in the data set with A549 cells is reported as “moderate cytotoxic activity”.

Turning to `COc1cc(-c2oc3cc(OC)c(O)c(O)c3c(=O)c2OC)ccc1O` [Compound 11, quercetagetin 3,7,3′-trimethyl ether], the IC50 in the data set with HTB140 cells (setting [1]) was > 100 µg/mL; in the data set on HTB140 cells (abstract, value in µM, read-out: IC50 HTB140 (remaining cell lines)) it was > 150 µM; in the data set with A375 cells (setting [2]), > 100 µg/mL; in the data set with A375 cells (abstract, value in µM, read-out: IC50 A375 (remaining cell lines)), > 150 µM; in the data set with HaCaT cells (setting [3]), > 100 µg/mL; with HaCaT cells (abstract, value in µM, read-out: IC50 HaCaT (remaining cell lines)), > 150 µM. In addition, the IC50 was 54.87 ± 0.23 µg/mL in the data set on DU145 cells (setting [4]); > 150 µM in the data set on DU145 cells (abstract, value in µM, read-out: IC50 DU145 (remaining cell lines)); 16.8 ± 0.77 µg/mL with PC3 cells (5–100 μg/mL); 46.6 µM with PC3 cells (value in µM); 82.4 ± 2.42 µg/mL in the data set with PNT-2 cells (setting [5]); > 150 µM in the data set with PNT-2 cells (abstract, value in µM, read-out: IC50 PNT2 (remaining cell lines)). For the same compound, the “cytotoxic activity toward melanoma cells (HTB140)” value in the data set with HTB140 cells (dose range of 5–100 μg/mL) was “not active”. For the same compound, in the data set with A375 cells (dose range of 5–100 μg/mL), the “cytotoxic activity toward melanoma cells (A375)” value is “not active”. The “cytotoxic activity toward keratinocytes” value with HaCaT cells (dose range of 5–100 μg/mL) is on record as “not active”.

Consider `COc1cccc2c1C(=O)c1c(O)c3c(c(O)c1C2=O)C[C@@](O)(C(=O)CO)C[C@@H]3O[C@H]1C[C@H](N)[C@H](O)[C@H](C)O1` [Doxorubicin, reference compound], for which the IC50 is 5.71 µg/mL in the data set with HTB140 cells (setting [1]); 0.59 µg/mL in the data set on A375 cells (setting [2]); 4.68 µg/mL with HaCaT cells (setting [3]); 3.18 µg/mL in the data set on DU145 cells (setting [4]); > 50 µg/mL in the data set on PC3 cells (5–100 μg/mL); 1.38 µg/mL in the data set with PNT-2 cells (setting [5]).
